In PubChem BioAssay (NCI):
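96-well plates; 48 h exposure; 5 concentrations. Endpoints by linear interpolation between flanking doses. Not reached: highest tested concentration assigned. GI50 is the concentration that inhibits growth by half. The concentration for full growth arrest is given as TGI.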

Experiments:
Experiment in all cases: NCI-60 cell line screen, 48 h
SK-OV-3 ovarian = test system: SK-OV-3 ovarian
UO-31 renal = test system: UO-31 renal
DU-145 prostate = test system: DU-145 prostate
HL-60(TB) leukemia = test system: HL-60(TB) leukemia
HT29 colon = test system: HT29 colon
BT-549 breast = test system: BT-549 breast
MDA-MB-435 = test system: MDA-MB-435
SNB-19 CNS = test system: SNB-19 CNS
UACC-257 melanoma = test system: UACC-257 melanoma
KM12 colon = test system: KM12 colon
CAKI-1 renal = test system: CAKI-1 renal
CCRF-CEM leukemia = test system: CCRF-CEM leukemia
MOLT-4 leukemia = test system: MOLT-4 leukemia
NCI-H522 lung = test system: NCI-H522 lung
SR leukemia = test system: SR leukemia
ACHN renal = test system: ACHN renal
SK-MEL-5 melanoma = test system: SK-MEL-5 melanoma
SF-539 CNS = test system: SF-539 CNS
SK-MEL-2 melanoma = test system: SK-MEL-2 melanoma
IGROV1 ovarian = test system: IGROV1 ovarian
K-562 leukemia = test system: K-562 leukemia
SN12C renal = test system: SN12C renal
MALME-3M melanoma = test system: MALME-3M melanoma
MDA-MB-231 breast = test system: MDA-MB-231 breast
HCT-116 colon = test system: HCT-116 colon
OVCAR-8 ovarian = test system: OVCAR-8 ovarian
SF-268 CNS = test system: SF-268 CNS
OVCAR-3 ovarian = test system: OVCAR-3 ovarian
HCC-2998 colon = test system: HCC-2998 colon
EKVX NSCLC = test system: EKVX NSCLC
NCI/ADR-RES ovarian = test system: NCI/ADR-RES ovarian
RXF 393 renal = test system: RXF 393 renal
NCI-H226 lung = test system: NCI-H226 lung
HOP-62 NSCLC = test system: HOP-62 NSCLC
A498 renal = test system: A498 renal
HCT-15 colon = test system: HCT-15 colon
A549 NSCLC = test system: A549 NSCLC
OVCAR-5 ovarian = test system: OVCAR-5 ovarian
SW-620 colon = test system: SW-620 colon
HS 578T breast = test system: HS 578T breast
M14 melanoma = test system: M14 melanoma
UACC-62 melanoma = test system: UACC-62 melanoma
MCF7 breast = test system: MCF7 breast
SK-MEL-28 melanoma = test system: SK-MEL-28 melanoma
RPMI-8226 leukemia = test system: RPMI-8226 leukemia
HOP-92 NSCLC = test system: HOP-92 NSCLC
SF-295 CNS = test system: SF-295 CNS
TK-10 renal = test system: TK-10 renal
PC-3 prostate = test system: PC-3 prostate
LOX IMVI melanoma = test system: LOX IMVI melanoma
OVCAR-4 ovarian = test system: OVCAR-4 ovarian
U251 CNS = test system: U251 CNS
SNB-75 CNS = test system: SNB-75 CNS
NCI-H23 lung = test system: NCI-H23 lung
T-47D breast = test system: T-47D breast
COLO 205 colon = test system: COLO 205 colon
NCI-H460 lung = test system: NCI-H460 lung

Structure (SMILES): CCc1ccc(-c2nnc(COc3ccc(-c4nc5ccc(C)cc5[nH]4)cc3OC)o2)cc1
- GI50 (SK-OV-3 ovarian): 3.29 µM
- TGI (SK-OV-3 ovarian): 11.1 µM
- GI50 (UO-31 renal): 1630 nM
- TGI (UO-31 renal): 3.17 µM
- GI50 (DU-145 prostate): 5.98 µM
- TGI (DU-145 prostate): > 100 µM
- GI50 (HL-60(TB) leukemia): 2010 nM
- TGI (HL-60(TB) leukemia): 4.26 µM
- GI50 (HT29 colon): 3.66 µM
- TGI (HT29 colon): > 100 µM
- GI50 (BT-549 breast): 1960 nM
- TGI (BT-549 breast): 4.34 µM
- GI50 (MDA-MB-435): 2510 nM
- TGI (MDA-MB-435): 6.97 µM
- GI50 (SNB-19 CNS): 4.63 µM
- TGI (SNB-19 CNS): > 100 µM
- GI50 (UACC-257 melanoma): 3.57 µM
- TGI (UACC-257 melanoma): 16.2 µM
- GI50 (KM12 colon): 5.39 µM
- TGI (KM12 colon): > 100 µM
- GI50 (CAKI-1 renal): 2070 nM
- TGI (CAKI-1 renal): 4.92 µM
- GI50 (CCRF-CEM leukemia): 3.06 µM
- TGI (CCRF-CEM leukemia): > 100 µM
- GI50 (MOLT-4 leukemia): 3.26 µM
- TGI (MOLT-4 leukemia): > 100 µM
- GI50 (NCI-H522 lung): 3.1 µM
- TGI (NCI-H522 lung): 25.2 µM
- GI50 (SR leukemia): 2080 nM
- TGI (SR leukemia): 5.22 µM
- GI50 (ACHN renal): 1780 nM
- TGI (ACHN renal): 3.19 µM
- GI50 (SK-MEL-5 melanoma): 1970 nM
- TGI (SK-MEL-5 melanoma): 4.09 µM
- GI50 (SF-539 CNS): 1700 nM
- TGI (SF-539 CNS): 3.21 µM
- GI50 (SK-MEL-2 melanoma): 2710 nM
- TGI (SK-MEL-2 melanoma): 7.81 µM
- GI50 (IGROV1 ovarian): 4.94 µM
- TGI (IGROV1 ovarian): > 100 µM
- GI50 (K-562 leukemia): 3.12 µM
- TGI (K-562 leukemia): > 100 µM
- GI50 (SN12C renal): 2200 nM
- TGI (SN12C renal): 5.52 µM
- GI50 (MALME-3M melanoma): 1560 nM
- TGI (MALME-3M melanoma): 3.11 µM
- GI50 (MDA-MB-231 breast): 2050 nM
- TGI (MDA-MB-231 breast): 4.87 µM
- GI50 (HCT-116 colon): 3.19 µM
- TGI (HCT-116 colon): 11.2 µM
- GI50 (OVCAR-8 ovarian): 5.08 µM
- TGI (OVCAR-8 ovarian): > 100 µM
- GI50 (SF-268 CNS): 4.47 µM
- TGI (SF-268 CNS): > 100 µM
- GI50 (OVCAR-3 ovarian): 2230 nM
- TGI (OVCAR-3 ovarian): 4.49 µM
- GI50 (HCC-2998 colon): 11.4 µM
- TGI (HCC-2998 colon): > 100 µM
- GI50 (EKVX NSCLC): 4.14 µM
- TGI (EKVX NSCLC): > 100 µM
- GI50 (NCI/ADR-RES ovarian): 3.28 µM
- TGI (NCI/ADR-RES ovarian): 37.5 µM
- GI50 (RXF 393 renal): 1750 nM
- TGI (RXF 393 renal): 3.29 µM
- GI50 (NCI-H226 lung): 2010 nM
- TGI (NCI-H226 lung): 4.28 µM
- GI50 (HOP-62 NSCLC): 2440 nM
- TGI (HOP-62 NSCLC): 6.46 µM
- GI50 (A498 renal): 1970 nM
- TGI (A498 renal): 4.72 µM
- GI50 (HCT-15 colon): 2820 nM
- TGI (HCT-15 colon): 10.3 µM
- GI50 (A549 NSCLC): 4.21 µM
- TGI (A549 NSCLC): > 100 µM
- GI50 (OVCAR-5 ovarian): 5.21 µM
- TGI (OVCAR-5 ovarian): > 100 µM
- GI50 (SW-620 colon): 3.75 µM
- TGI (SW-620 colon): 62.4 µM
- GI50 (HS 578T breast): 2070 nM
- TGI (HS 578T breast): 5.01 µM
- GI50 (M14 melanoma): 2270 nM
- TGI (M14 melanoma): 5.84 µM
- GI50 (UACC-62 melanoma): 2120 nM
- TGI (UACC-62 melanoma): 5.09 µM
- GI50 (MCF7 breast): 3.36 µM
- TGI (MCF7 breast): > 100 µM
- GI50 (SK-MEL-28 melanoma): 2360 nM
- TGI (SK-MEL-28 melanoma): 6.66 µM
- GI50 (RPMI-8226 leukemia): 2260 nM
- TGI (RPMI-8226 leukemia): 5.75 µM
- GI50 (HOP-92 NSCLC): 2070 nM
- TGI (HOP-92 NSCLC): 5.83 µM
- GI50 (SF-295 CNS): 2330 nM
- TGI (SF-295 CNS): 5.75 µM
- GI50 (TK-10 renal): 2720 nM
- TGI (TK-10 renal): 5.61 µM
- GI50 (PC-3 prostate): 2960 nM
- TGI (PC-3 prostate): > 100 µM
- GI50 (LOX IMVI melanoma): 1980 nM
- TGI (LOX IMVI melanoma): 4.25 µM
- GI50 (OVCAR-4 ovarian): 1740 nM
- TGI (OVCAR-4 ovarian): 3.53 µM
- GI50 (U251 CNS): 2320 nM
- TGI (U251 CNS): 5.79 µM
- GI50 (SNB-75 CNS): 1410 nM
- TGI (SNB-75 CNS): 2960 nM
- GI50 (NCI-H23 lung): 4.52 µM
- TGI (NCI-H23 lung): 54.4 µM
- GI50 (T-47D breast): 2150 nM
- TGI (T-47D breast): 5.22 µM
- GI50 (COLO 205 colon): 8.39 µM
- TGI (COLO 205 colon): 96 µM
- GI50 (NCI-H460 lung): 3.38 µM
- TGI (NCI-H460 lung): 18.4 µM
